Measurements: patent US20260232763A1 (Kadmon Corporation, LLC, priority 2023, published 2026)
Counter-ions that a name gives are not always drawn. Marks after values point to notes of the source that are not given here.

Tests used:
[1] = cited from earlier work
ROCK2 = ROCK2 (Homo sapiens, UniProt O75116); assay: ROCK2 inhibition; assay type: biochemical
[2] = Example 3 Part 2 (Regimen B) dabigatran etexilate + belumosudil plasma PK; assay type: in vivo, human
Description: The ratio was defined as test/reference. In addition, the intraparticipant variability were also presented. […] No formal interim analyses were performed for this study.

clinical [3] = assay: clinical
Description: (§1) On Day 10, the victim and perpetrator IMPs were administered simultaneously.
(§2) On the evening before each dose, participants were provided with a light snack and were required to fast from all food and drink (except water) for a minimum of 10 hours until the following morning. All study interventions were administered in the fed state, following completion of a standard breakfast (with dosing planned to occur 30 minutes after the start of the breakfast).
(§3) The PK parameters underwent a natural logarithmic transformation and were analyzed using a mixed effect modelling technique. Adjusted geometric mean ratios and 90% confidence intervals (CIs) of the ratios were obtained for each comparison. The ratio was defined as test/reference. In addition, the intraparticipant variability were also presented. […] No formal interim analyses were performed for this study.

clinical [4] = conditions: human, in vivo
Description: as §1, §2, §3

[5] = metabolite exposure in clinical trials of the belumosudil development program; assay type: in vivo, human
[6] = Raltegravir + belumosudil (Day 7), belumosudil 200 mg QD
[7] = Raltegravir alone (Day 1), 400 mg single dose
[8] = Regimen A, raltegravir 400 mg single dose + belumosudil 200 mg QD (Day 7)
[9] = Regimen A, raltegravir 400 mg single dose alone (Day 1)
[10] = raltegravir + belumosudil vs raltegravir alone
[11] = Dabigatran etexilate + belumosudil (Day 9), belumosudil 200 mg QD
[12] = Dabigatran etexilate alone (Day 1), 75 mg single dose
[13] = Regimen B, dabigatran etexilate 75 mg single dose + belumosudil 200 mg QD (Day 9)
[14] = dabigatran etexilate + belumosudil vs alone
[15] = dosed with belumosudil compared to dosing alone

ROCK2, sequence (O75116 whole entry): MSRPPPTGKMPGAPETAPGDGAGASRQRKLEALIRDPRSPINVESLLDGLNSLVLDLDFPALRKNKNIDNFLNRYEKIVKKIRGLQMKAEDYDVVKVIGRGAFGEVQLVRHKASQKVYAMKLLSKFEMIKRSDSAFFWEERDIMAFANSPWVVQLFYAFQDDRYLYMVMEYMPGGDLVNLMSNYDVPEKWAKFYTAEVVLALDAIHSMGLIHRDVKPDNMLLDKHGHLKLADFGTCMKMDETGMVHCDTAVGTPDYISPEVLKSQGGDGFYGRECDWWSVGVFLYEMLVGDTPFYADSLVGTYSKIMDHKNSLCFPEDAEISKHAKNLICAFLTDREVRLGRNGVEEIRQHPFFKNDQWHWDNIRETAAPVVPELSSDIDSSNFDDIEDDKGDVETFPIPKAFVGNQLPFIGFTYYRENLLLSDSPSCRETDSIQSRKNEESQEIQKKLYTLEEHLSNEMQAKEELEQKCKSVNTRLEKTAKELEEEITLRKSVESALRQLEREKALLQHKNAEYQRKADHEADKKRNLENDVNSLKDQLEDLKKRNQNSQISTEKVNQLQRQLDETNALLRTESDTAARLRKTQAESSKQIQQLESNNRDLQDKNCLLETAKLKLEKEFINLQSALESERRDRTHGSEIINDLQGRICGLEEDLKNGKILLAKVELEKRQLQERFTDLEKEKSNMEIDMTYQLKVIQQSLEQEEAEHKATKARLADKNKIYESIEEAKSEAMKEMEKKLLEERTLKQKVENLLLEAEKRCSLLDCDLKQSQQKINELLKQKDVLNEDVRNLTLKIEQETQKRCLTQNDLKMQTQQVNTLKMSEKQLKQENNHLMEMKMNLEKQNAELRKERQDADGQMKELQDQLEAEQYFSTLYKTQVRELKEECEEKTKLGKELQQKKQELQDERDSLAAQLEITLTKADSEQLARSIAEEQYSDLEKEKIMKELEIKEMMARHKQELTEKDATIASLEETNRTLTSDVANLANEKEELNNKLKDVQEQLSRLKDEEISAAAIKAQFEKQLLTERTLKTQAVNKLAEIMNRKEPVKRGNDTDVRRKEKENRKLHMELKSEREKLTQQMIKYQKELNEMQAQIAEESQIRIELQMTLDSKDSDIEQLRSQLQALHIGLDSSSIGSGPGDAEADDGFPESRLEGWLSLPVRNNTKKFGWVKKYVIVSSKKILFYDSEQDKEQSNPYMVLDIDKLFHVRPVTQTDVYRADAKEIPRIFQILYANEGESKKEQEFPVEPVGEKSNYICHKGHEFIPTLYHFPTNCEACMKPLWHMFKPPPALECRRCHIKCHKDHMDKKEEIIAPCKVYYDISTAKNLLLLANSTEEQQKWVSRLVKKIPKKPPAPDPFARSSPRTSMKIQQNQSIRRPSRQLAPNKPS

In the case of `CC(C)NC(=O)COc1cccc(-c2nc(Nc3ccc4[nH]ncc4c3)c3ccccc3n2)c1` [Belumosudil mesylate, 2-{3-[4-(1H-indazol-5-ylamino)-2-quinazolinyl]phenoxy}-N-(propan-2-yl) acetamide methanesulfonate (1:1)], the “solubility in DMF” value ([1]; DMF) is given as “slightly soluble”, the “solubility in DMSO” value ([1]; DMSO) is given as “soluble” and the solubility in methanol ([1]; methanol) is given as “slightly soluble”. For the same compound, the solubility in water ([1]; water) was “practically insoluble”.
In the case of `NC(=O)COc1cccc(-c2nc(Nc3ccc4[nH]ncc4c3)c3ccccc3n2)c1` [KD025m1], the “ROCK2 activity of metabolite” value (ROCK2) is reported as “ROCK2 active”, the “T1/2, individual participant value(s)” value ([2]; human, in vivo) is reported as 1.878^b h and the “median Tmax” value ([2]; human, in vivo) is reported as 1.5 to 2 h. For the same compound, the “AUC(0-last), geometric mean” value ([2]; human, in vivo, 200 mg) was 35.3 ng·h/mL, the “Cmax, geometric mean” value ([2]; human, in vivo, 200 mg) was 19.5 ng/mL and the “Tmax, median” value ([2]; human, in vivo, 200 mg) was 1.750 h. For the same compound, the “geometric mean T1/2” value (clinical [3]; human, in vivo) was 1.6 to 2 h, the “median Tmax” value (clinical [3]; human, in vivo) was 1.5 to 3 h and the “AUC(0-last), geometric mean” value (clinical [3]; human, in vivo, 200 mg) was 47.6 ng·h/mL. For the same compound, the “AUC(0-tau), geometric mean” value (clinical [3]; human, in vivo, 200 mg) was 96.6 ng·h/mL, the “Cmax, geometric mean” value (clinical [3]; human, in vivo, 200 mg) was 21.4 ng/mL and the “T1/2, geometric mean” value (clinical [3]; human, in vivo, 200 mg) was 1.621 h. The “Tmax, median” value (clinical [3]; human, in vivo, 200 mg) was 2.00 h, the “median Tmax” value (clinical [4]) was 1.5 to 2 h and the “AUC(0-last), geometric mean” value (clinical [4]; 200 mg) was 32.0 ng·h/mL. For the same compound, the “Cmax, geometric mean” value (clinical [4]; 200 mg) was 17.1 ng/mL, the “Tmax, median” value (clinical [4]; 200 mg) was 1.500 h and the “exposure of metabolite relative to the parent” value [5] was less than 5%.
For `O=C(O)COc1cccc(-c2nc(Nc3ccc4[nH]ncc4c3)c3ccccc3n2)c1` [KD025m2], the “ROCK2 activity of metabolite” value (ROCK2) was “ROCK2 inactive”, the “increase of exposures (Cmax and AUC) following multiple dosing” value (from here on “increase of exposures”) ([2]; human, in vivo) was 1.27-1.42 fold and the “median Tmax” value ([2]; human, in vivo) was 1.5 to 2 h. The “AUC(0-last), geometric mean” value ([2]; human, in vivo, 200 mg) was 692 ng·h/mL, the “AUC(0-tau), geometric mean” value ([2]; human, in vivo, 200 mg) was 746 ng·h/mL and the “Cmax, geometric mean” value ([2]; human, in vivo, 200 mg) was 184 ng/mL. For the same compound, the “Tmax, median” value ([2]; human, in vivo, 200 mg) was 2.000 h, the “increase of exposures” value (clinical [3]; human, in vivo) was 1.30-1.49 fold and the “median Tmax” value (clinical [3]; human, in vivo) was 1.5 to 3 h. For the same compound, the “AUC(0-last), geometric mean” value (clinical [3]; human, in vivo, 200 mg) was 879 ng·h/mL, the “AUC(0-tau), geometric mean” value (clinical [3]; human, in vivo, 200 mg) was 961 ng·h/mL and the “Cmax, geometric mean” value (clinical [3]; human, in vivo, 200 mg) was 278 ng/mL. The “Tmax, median” value (clinical [3]; human, in vivo, 200 mg) was 2.00 h, the “increase of exposures” value (clinical [4]) was 1.21-1.57 fold and the “median Tmax” value (clinical [4]) was 1.5 to 2 h. For the same compound, the “AUC(0-last), geometric mean” value (clinical [4]; 200 mg) was 557 ng·h/mL, the “AUC(0-tau), geometric mean” value (clinical [4]; 200 mg) was 598 ng·h/mL and the “Cmax, geometric mean” value (clinical [4]; 200 mg) was 215 ng/mL. The “Tmax, median” value (clinical [4]; 200 mg) was 2.000 h.
For `Cc1nnc(C(=O)NC(C)(C)c2nc(C(=O)NCc3ccc(F)cc3)c(O[C@@H]3O[C@H](C(=O)O)[C@@H](O)[C@H](O)[C@H]3O)c(=O)n2C)o1` [raltegravir glucuronide], the “peak and overall exposure levels when raltegravir was dosed with belumosudil compared to dosing alone” value (clinical [3]; Part 1) was “notable decrease”, the “MPR Cmax (metabolite to parent ratio)” value (clinical [3]; Raltegravir + belumosudil (Day 7)) was 0.299 and the “AUC(0-24), geometric mean” value (clinical [3]; [6]) was 1090 ng·h/mL. The “AUC(0-inf), geometric mean” value (clinical [3]; [6]) was 1170 ng·h/mL, the “AUC(0-last), geometric mean” value (clinical [3]; [6]) was 859 ng·h/mL and the “Cmax, geometric mean” value (clinical [3]; [6]) was 207 ng/mL. The “T1/2, geometric mean” value (clinical [3]; [6]) was “approximately 3.9 h”, the “Tmax, median” value (clinical [3]; [6]) was 4.000 h and the “T1/2, geometric mean” value (clinical [3]; Raltegravir + belumosudil (Day 7), belumosudil 200 mg QD, listed as Raltegravir glucuronide) was 3.919 h. For the same compound, the “MPR Cmax (metabolite to parent ratio)” value (clinical [3]; Raltegravir alone (Day 1)) was 0.506, the “AUC(0-24), geometric mean” value (clinical [3]; [7]) was 1710 ng·h/mL and the “AUC(0-inf), geometric mean” value (clinical [3]; [7]) was 1290 ng·h/mL. The “AUC(0-last), geometric mean” value (clinical [3]; [7]) was 1420 ng·h/mL, the “Cmax, geometric mean” value (clinical [3]; [7]) was 359 ng/mL and the “T1/2, geometric mean” value (clinical [3]; [7]) was roughly 1.5 h. For the same compound, the “Tmax, median” value (clinical [3]; [7]) was 4.000 h, the “T1/2, geometric mean” value (clinical [3]; Raltegravir alone (Day 1), 400 mg single dose, listed as Raltegravir glucuronide) was 1.541 h and the “AUC(0-last), adj geo mean” value (clinical [3]; [8]) was 859 ng·h/mL. For the same compound, the “Cmax, adj geo mean” value (clinical [3]; [8]) was 207 ng/mL, the “AUC(0-last), adj geo mean” value (clinical [3]; [9]) was 1420 ng·h/mL and the “Cmax, adj geo mean” value (clinical [3]; [9]) was 359 ng/mL. The “AUC(0-last), ratio of adj geo means (test/reference)” value (clinical [3]; [10]) was 60.38% and the “Cmax, ratio of adj geo means (test/reference)” value (clinical [3]; [10]) was 57.58%.
In the case of `Cc1nnc(C(=O)NC(C)(C)c2nc(C(=O)NCc3ccc(F)cc3)c(O)c(=O)n2C)o1` [raltegravir, reference compound], the “Tmax, median” value (clinical [3]; [6]) is reported as 3.000 h, the “Tmax, median” value (clinical [3]; [7]) is reported as 3.000 h and the AUC(0-inf) (clinical [3]; male, human, in vivo, 400 mg) is reported as 1510 ng·h/mL. For the same compound, the “Cmax, adj geo mean” value (clinical [3]; male, human, in vivo, 400 mg) was 512 ng/mL, the “Cmax, geometric mean” value (clinical [3]; male, human, in vivo, 400 mg) was 520 ng/mL and the “T1/2, geometric mean” value (clinical [3]; male, human, in vivo, 400 mg) was 1.434 h. For the same compound, the half-life (clinical [3]; male, human, in vivo, 400 mg) was roughly 1.4 h, the AUC(0-t) (clinical [3]; male, human, in vivo, 400 mg, AUC(0-24), geometric mean) was 1970 ng·h/mL and the AUC(0-t) (clinical [3]; male, human, in vivo, 400 mg, AUC(0-last), adj geo mean) was 1570 ng·h/mL. For the same compound, the AUC(0-t) (clinical [3]; male, human, in vivo, 400 mg, AUC(0-last), geometric mean) was 1640 ng·h/mL.
In the case of `CC(C)c1nc(N(C)S(C)(=O)=O)nc(-c2ccc(F)cc2)c1/C=C/[C@@H](O)C[C@@H](O)CC(=O)O` [rosuvastatin, reference compound], the “increase of overall exposure level” value (clinical [4]; male) is reported as 4.62 fold, the “increase of peak exposure level” value (clinical [4]; male) is reported as 3.59 fold and the AUC(0-inf) (clinical [4]; male, 10 mg) is reported as 25.4 ng·h/mL. For the same compound, the “AUC(0-last), geometric mean” value (clinical [4]; male, 10 mg) was 13.6 ng·h/mL, the AUC(0-t) (clinical [4]; male, 10 mg) was 13.6 ng·h/mL and the “Cmax, adj geo mean” value (clinical [4]; male, 10 mg) was 2.96 ng/mL. The “Cmax, geometric mean” value (clinical [4]; male, 10 mg) was 2.96 ng/mL.
For `[H]/N=C(/N)c1ccc(NCc2nc3cc(C(=O)N(CCC(=O)O)c4ccccn4)ccc3n2C)cc1` [unconjugated dabigatran, dabigatran, reference compound], the “AUC(0-last), geometric mean” value [2, 11] was 682 ng·h/mL, the “Cmax, geometric mean” value [2, 11] was 99.5 ng/mL and the “T1/2, geometric mean” value [2, 11] was 8.293 h. For the same compound, the “Tmax, median” value [2, 11] was 2.000 h, the “AUC(0-last), geometric mean” value [2, 12] was 317 ng·h/mL and the “Cmax, geometric mean” value [2, 12] was 42.1 ng/mL. The “T1/2, geometric mean” value [2, 12] was 8.128 h, the “Tmax, median” value [2, 12] was 3.000 h and the “AUC(0-last), adj geo mean” value [2, 13] was 682 ng·h/mL. For the same compound, the “Cmax, adj geo mean” value [2, 13] was 99.5 ng/mL, the “Cmax, adj geo mean” value ([2]; Regimen B, dabigatran etexilate 75 mg single dose alone (Day 1)) was 42.1 ng/mL and the increase of exposure ([2]; coadministration of belumosudil) was 2 fold. For the same compound, the “AUC(0-inf), ratio of adj geo means (test/reference)” value [2, 14] was 206.47%, the “AUC(0-last), ratio of adj geo means (test/reference)” value [2, 14] was 215.41% and the “Cmax, ratio of adj geo means (test/reference)” value [2, 14] was 236.06%. For the same compound, the “increase of overall exposure level” value [2, 15] was 2.06 fold, the “increase of peak exposure level” value [2, 15] was 2.36 fold and the AUC(0-inf) ([2]; male, human, plasma, oral, 75 mg, Dabigatran etexilate alone (Day 1), 75 mg single dose, read-out: AUC(0-inf), geometric mean) was 371 ng·h/mL. It also gave an AUC(0-inf) ([2]; male, human, plasma, oral, 75 mg, Regimen B, dabigatran etexilate 75 mg single dose alone (Day 1), read-out: AUC(0-inf), adj geo mean) of 398 ng·h/mL, an AUC(0-inf) ([2]; male, human, plasma, oral, Dabigatran etexilate + belumosudil (Day 9), belumosudil 200 mg QD, read-out: AUC(0-inf), geometric mean) of 801 ng·h/mL and an AUC(0-inf) ([2]; male, human, plasma, oral, Regimen B, dabigatran etexilate 75 mg single dose + belumosudil 200 mg QD (Day 9), read-out: AUC(0-inf), adj geo mean) of 822 ng·h/mL. The AUC(0-t) ([2]; male, human, plasma, oral, Regimen B, dabigatran etexilate 75 mg single dose alone (Day 1), read-out: AUC(0-last), adj geo mean) was 317 ng·h/mL.
